{"source": "paper PMC4912613", "about": "“A broad analysis of resistance development in the malaria parasite” (Nature Communications, 2016)", "type_in_all_cases": "cell-based, Plasmodium falciparum", "key": {"[1]": {"system": "PfATP4-Mut1 (PfATP4 V178I, parent W2)", "test": "Cross-resistance EC50 assay, PfATP4-Mut1", "settings": "loss of efficacy", "text": "(§1) To evaluate potential overlapping activity against known antimalarial drug targets, we performed dose-response studies with each compound against our assembled set of drug-resistant lines and their corresponding parents, in an asexual blood stage proliferation assay (Table 1). Comparisons were made to the drug-sensitive strain 3D7 when a parent was unavailable (TM90C2A, W2 and Dd2). As laboratories conducted EC50 assays with different strains and protocols, all comparisons were made between assays from the same laboratory and under the same assay conditions. Compounds displaying >5-fold EC50 shifts relative to the parent or sensitive strain were flagged as having potentially non-novel targets. Average fold shifts per strain ranged from 0.82 to 2.34, with a median of 1.23 indicating there was not common resistance to any one resistant clone. […]\n(§2) The 48-h assay was carried out in a 96-well format following standard methods using the ^3H-hypoxanthine incorporation assay. […] Radioactivity was measured using a microbeta counter. […] All assays were conducted in triplicate using three independently grown cultures, and EC50 values were determined using the XLfit add-in module for Excel (version 2.3.1) from Grafit (version 5.3.1.3), where parameter h is the assay hill slope, x is the compound concentration and y is the inhibition of growth effect. […]"}, "[2]": {"system": "PfATP4-Mut2 (PfATP4 P412L, parent W2)", "test": "Cross-resistance EC50 assay, PfATP4-Mut2", "text": "as §1, with “clone. No resistance patterns were observed when classifying the compounds based on chemical structure, but this was not surprising given the diversity of compounds chosen.” for “clone.”\nas §2\n(§3) Alternatively, a SYBR Green-based proliferation approach was used for the 72-h assay, as previously described. […] Following incubation, 10 × SYBR Green I (Invitrogen; supplied in 10,000 × concentration) in lysis buffer ([…], 5 mM EDTA, 0.16% Saponin wt per vol and 1.6% Triton X vol per vol) was added to the wells and the plates were incubated overnight at room temperature before plate reading. […]"}, "[3]": {"system": "15 resistant strains and their parents", "test": "Cross-resistance panel, asexual blood stage proliferation EC50 fold shifts (all strains)", "settings": "for EC50 fold-shifts in resistant lines relative to parent clones: loss of efficacy in some resistant lines", "text": "as §1, with “clone. No resistance patterns were observed when classifying the compounds based on chemical structure, but this was not surprising given the diversity of compounds chosen.” for “clone.”\nas §2, §3"}, "[4]": {"system": "PfATP4-Mut3 (PfATP4 F917L, parent 3D7)", "text": "as §1, §2"}}}
{"compound": "O=C(Nc1ccsc1C(=O)NC1CCCCC1)c1ccc(F)cc1", "note": "[MMV665939]", "values": [{"measurement": "EC50 fold-shift, PfATP4-Mut1 compared with 3D7", "setting": "[1]", "value": 16.6, "unit": "×"}, {"measurement": "EC50 fold-shift, PfATP4-Mut2 compared with 3D7", "setting": "[2]; loss of efficacy", "value": 18.9, "unit": "×"}]}
{"compound": "Cc1c(C)n(Cc2ccc(F)cc2)c2ccc(C(=O)NCc3ccco3)cc12", "note": "[MMV008149]", "values": [{"measurement": "EC50 fold-shifts in resistant lines relative to parent clones", "setting": "[3]", "value": "> 5", "unit": "fold"}]}
{"compound": "CCN(CC)S(=O)(=O)c1ccc(-c2csc(Nc3ccc(C)c(C)c3)n2)cc1", "note": "[MMV009108]", "values": [{"measurement": "EC50 fold-shift, ATP4-Mut2 vs parent", "setting": "[2]", "value": 23, "unit": "×"}, {"measurement": "EC50 fold-shift, ATP4-Mut3 vs parent", "setting": "[4]", "value": 5.2, "unit": "×"}]}
{"compound": "COc1ccccc1CNC(=O)CCn1c(=O)[nH]c2ccsc2c1=O", "note": "[MMV019066]", "values": [{"measurement": "EC50 fold-shifts in resistant lines relative to parent clones", "setting": "[3]", "value": "> 5", "unit": "fold"}]}
{"compound": "CC(C)c1cccc(C(NC(=O)C2Cc3ccccc3CN2C(=O)c2cccc(N3CCOCC3)c2)C2CCCC2)c1", "note": "(centres unmarked) [MMV028038]", "values": [{"measurement": "EC50 fold-shift, ATP4-Mut2 vs parent", "setting": "[2]", "value": 5, "unit": "×"}]}
{"compound": "CN(C)CCCN(C)C(=O)C1Cc2cc(-c3ccccc3)ccc2N1S(=O)(=O)c1ccccc1", "note": "(centres unmarked) [MMV028895]", "values": [{"measurement": "EC50 fold-shift, other Dd2 clones compared with 3D7, average", "setting": "[3]; Dd2-derived clones, average", "value": 5.5, "unit": "×"}]}
